Results published in ChEMBL document CHEMBL1154270, “Light-independent metabolomics of endophytic Thielavia subthermophila provides insight into microbial hypericin biosynthesis” (J Nat Prod, 2009).
Active and inactive are the calls of the source. The rule behind the calls is not given here.

Key:
THP-1 [1] = assay: Cytotoxicity against human THP1 cells after 48 hrs assessed as morphological changes in the dark condition; assay type: functional, cell-based
THP-1 [2] = assay: Cytotoxicity against human THP1 cells after 48 hrs assessed morphological changes compound exposed to light for 20 mins before treatment; assay type: functional, cell-based

## Cc1cc(O)c2c(=O)c3c(O)cc(O)c4c5c(O)cc(O)c6c(=O)c7c(O)cc(C)c8c1c2c(c34)c(c78)c65
THP-1 [1]
  Activity: Active
THP-1 [2]
  Activity: Active

## Cc1cc(O)c2c(c1)C(=O)c1cc(O)cc(O)c1C2=O
THP-1 [1]
  Activity: Active
THP-1 [2]
  Activity: Active

## Cc1cc(O)c2c(c1)Cc1cc(O)cc(O)c1C2=O
THP-1 [1]
  Activity: Active
THP-1 [2]
  Activity: Active

## Cc1cc(O)c2c(=O)c3c(O)cc(O)c4c5c(O)cc(O)c6c(=O)c7c(O)cc(C)cc7c(c65)c(c2c1)c34
THP-1 [1]
  Activity: Active
THP-1 [2]
  Activity: Active
